PMC12270663, “Cagrilintide lowers bodyweight through brain amylin receptors 1 and 3” (eBioMedicine, 2025)

Tests used:
[1] = test system: area postrema (AP) neurons of WT and RAMP1/3 KO mice; assay: Study 4 cohort 1: cFos positive neurons, AP; assay type: in vivo, mouse; settings: for Predicted (LS) mean diff., AP cFos after square root transformation: second statistical test, Figure 4b
Procedure: (§1) Mice were group housed in a controlled environment maintained at 21 ± 2 °C, under a 12/12 h light–dark cycle (lights off at 11.00 h). In the first cohort, 25 male WT and 25 male RAMP1/3 KO mice aged between 12 and 20 week-old were fed chow diet and maintained under group housing condition. In the second cohort, 18 male WT, 18 male RAMP1 KO, 18 male RAMP3 KO and 18 male RAMP1/3 KO mice aged between 10 and 15 week-old were fed chow diet and maintained under group housing condition.
For both cohorts, animals were deeply anesthetised 90 min later (pentobarbital 100 mg/kg, i.p) and transcardially perfused with cold 0.1 M of phosphate buffer (PB) for 1.5 min followed by 4% of paraformaldehyde (PFA) in PB for 2.5 min. Brains were removed and postfixed overnight in 4% of PFA and cryoprotected in 20% of sucrose-PB for 24 h. Brains were frozen in hexane on dry ice and stored at −80 °C until sectioning. Stereological brain sampling of the areas of interest was performed and brain were serially cut on a cryostat (Leica Biosystems, Germany, cat# CM3050S), mounted on Superfrost Plus slides (Thermo Fisher Scientific, Reinach, Switzerland), and cryoprotected in 50% of PB, 30% of ethylene glycol, 20% of glycerol, and subsequently stored at −20 °C.
Blocking of the mouse brain sections was performed with 0.4% Triton–4% normal goat serum in PBS for 2 h at room temperature. AP/NTS and LPBN sections were incubated at 4 °C for 48 h with rabbit anti-Fos antibody (1:500, Cell signalling technology, Switzerland, Cat# 2250, RRID: AB_2247211), and then after PBS washes, incubated with goat anti-rabbit Alexa Fluor CY3 (1:200, LuBio Science GmbH, Switzerland for Jackson Immunoresearch, Cat# 111-165-144) or alexa fluor 488 for 2 h at room temperature. After thorough washing in PBS, the sections were counterstained with DAPI, mounted immediately and coverslipped with Vectashield antifade Mounting Medium (Vectorlabs, Burlingame, USA, cat# H-1400).[40]
Photomicrographs of all sections containing AP, NTS and LPBN were taken at 20× magnification using Zeiss Axio Scan.Z1 slidescanner (Center for Microscopy and Image Analysis UZH, Zeiss, Germany). All images for each study were acquired using the same exposure time. Scanned images were imported into QuPath (QuPath 0.5.0) for quantification. Three to four sections were counted and averaged per area of interest. A polygon tool was used manually to determine the boundary of the region of interest of the brain section. A cell detection tool was used to detect every cell in the section by using a built-in cell segmentation algorithm. The cell detection tool was used on the DAPI channel to make sure that only a cell was recognised and not the background or artefact by system. A detection classifier was created by using the create detection classifier function. The numbers of positive counted DAPI cells containing a cFos signal were automatically counted within the region. The experimental group was blinded to the experimenter during the analysis.

WT 129S2 chow-fed mice = assay: Study 1: acute food intake and body weight response; assay type: in vivo, mouse; settings: all doses (3, 30, 300 nmol/kg s.c.)
Procedure: Thirty-two 12 week-old male WT 129S2/SvEv mice (Janvier Elevage, France) were individually housed in food monitoring cages (BioDAQ, New Brunswick, NJ, USA). Mice were housed in a controlled environment maintained at 21 ± 2 °C, under a 12/12 h light–dark cycle (lights off at 10.00 h). They were adapted to the cages and hoppers for 2 weeks before being tested. Mice were fed water and chow diet ad libitum (3.14 kcal/g of food; Kliba, Switzerland, cat# 3436).
Mice were injected subcutaneously (s.c.) at dark onset after a 4 h fast in the light phase with vehicle, 3 nmol/kg, 30 nmol/kg or 300 nmol/kg of cagrilintide.

rCTR(a) = test system: rCTR(a); design: method as in PMID 34288673; settings: pEC50 = -LogEC50; cited from earlier work
[2] = test system: WT and RAMP1/3 KO high fat diet fed mice; assay: Study 3: body composition by EchoMRI; assay type: in vivo, mouse; settings: 3 nmol/kg/d s.c., 3 weeks
Procedure: (§2) Mice were s.c. injected once a day for 3 weeks 1 h before dark onset between 9.00 and 10.00 h. Prior to injection, daily body weight and food intake were measured manually. On the day of sacrifice, mice were anesthetised with pentobarbital (100 mg/kg, i.p., Cantonal Pharmacy of Zurich, Switzerland) 24 h after receiving the last dose of peptide.
Brains were harvested, snap frozen on dry ice and kept at −80 °C until mRNA extraction for next-generation sequencing (NGS) analysis. Blood samples were collected from the right ventricle of the heart during the sacrifice in 1 mL EDTA-coated tubes containing dipeptidyl peptidase-4 inhibitor (10 μL/mL blood; Sigma Aldrich, Switzerland, cat# DPP4-010) and protease inhibitor (30 μL/mL blood; Sigma Aldrich, Switzerland, cat# P2714). After centrifugation, plasma was kept at −80 °C. The mice were stored at −20 °C until body composition analysis was performed.
Lean and fat mass were measured post-mortem using EchoMRI (EchoMRI LLC, USA) at the Zurich Integrative Rodent Physiology (University of Zurich). Calibrations and measurements were performed according to manufacturer's instructions. Two measurements were performed and averaged per mouse. Fat mass and lean mass values are expressed as percent of body weight.

[3] = test system: LPBN neurons of WT and RAMP1/3 KO mice; assay: Study 4 cohort 1: cFos positive neurons, LPBN; assay type: in vivo, mouse; settings: both 3 nmol/kg i.p., 90 min
Procedure: as §1
For both cohorts, animals were deeply anesthetised 90 min later (pentobarbital 100 mg/kg, i.p) and transcardially perfused with cold 0.1 M of phosphate buffer (PB) for 1.5 min followed by 4% of paraformaldehyde (PFA) in PB for 2.5 min. Brains were removed and postfixed overnight in 4% of PFA and cryoprotected in 20% of sucrose-PB for 24 h. Brains were frozen in hexane on dry ice and stored at −80 °C until sectioning. […]
(§3) Photomicrographs of all sections containing AP, NTS and LPBN were taken at 20× magnification using Zeiss Axio Scan.Z1 slidescanner (Center for Microscopy and Image Analysis UZH, Zeiss, Germany). […] Scanned images were imported into QuPath (QuPath 0.5.0) for quantification. Three to four sections were counted and averaged per area of interest. […] The numbers of positive counted DAPI cells containing a cFos signal were automatically counted within the region. […]

[4] = test system: WT and RAMP1/3 KO high fat diet fed mice; assay: Study 3: 3-week treatment, food intake and body weight; assay type: in vivo, mouse
Procedure: Male mice were housed in a controlled environment maintained at 21 ± 2 °C, under a 12/12 h light–dark cycle (lights off at 11.00 h). Mice had ad libitum access to standard chow (3.14 kcal/g of food; Kliba, Switzerland, cat# 3436) and water, until 3–4 weeks old. Twenty-four WT and twenty-four RAMP 1/3 KO male mice were fed a 60% fat HFD (5.24 kcal/g of food; SSNIFF Spezialdiäten GmbH, Germany, cat# EF D12452) provided ad libitum for 18 weeks. Then mice were fed to a 45% fat HFD (4.73 kcal/g of food; SSNIFF Spezialdiäten GmbH, Germany, cat# EF D12451) provided ad libitum for 6 weeks until the end of the study. The mice were group housed (3–4 mice per cage) until 1 week before the 21-day treatment period. Each cage was equipped with a red plastic house, tissue paper, nest-building material and wood shavings. Prior to the 21-day treatment, mice were injected with vehicle for three days to acclimate to the daily subcutaneous injections and reduce stress associated with the injections.
as §2

rAMYR3 = test system: rAMYR3; design: method as in PMID 34288673; settings: pEC50 = -LogEC50; cited from earlier work
[5] = test system: AP neurons of WT, RAMP1 KO, RAMP3 KO and RAMP1/3 KO mice; assay: Study 4 cohort 2: cFos positive neurons, AP; assay type: in vivo, mouse; settings: 3 nmol/kg i.p.
Procedure: as §1
Cohort 2: WT, RAMP1 KO, RAMP3 KO and RAMP1/3 KO were injected i.p. at dark onset after a 12 h fast in the light phase with vehicle or cagrilintide (3 nmol/kg) (n = 6/group).
For both cohorts, animals were deeply anesthetised 90 min later (pentobarbital 100 mg/kg, i.p) and transcardially perfused with cold 0.1 M of phosphate buffer (PB) for 1.5 min followed by 4% of paraformaldehyde (PFA) in PB for 2.5 min. […]
as §3

CC[C@H](C)[C@H](NC(=O)[C@@H]1CCCN1C(=O)CNC(=O)[C@H](Cc1ccccc1)NC(=O)[C@H](CC(N)=O)NC(=O)[C@H](CC(N)=O)NC(=O)[C@H](CO)NC(=O)[C@H](CO)NC(=O)[C@H](Cc1c[nH]cn1)NC(=O)[C@H](CCCNC(=N)N)NC(=O)[C@H](CC(C)C)NC(=O)[C@H](Cc1ccccc1)NC(=O)[C@H](CCC(=O)O)NC(=O)[C@H](C)NC(=O)[C@H](CC(C)C)NC(=O)[C@H](CCCNC(=N)N)NC(=O)[C@H](CCC(N)=O)NC(=O)[C@@H](NC(=O)[C@H](C)NC(=O)[C@@H]1CSSC[C@H](NC(=O)[C@H](CCCCN)NC(=O)CC[C@H](NC(=O)CCCCCCCCCCCCCCCCCCC(=O)O)C(=O)O)C(=O)N[C@@H](CC(N)=O)C(=O)N[C@@H]([C@@H](C)O)C(=O)N[C@@H](C)C(=O)N[C@@H]([C@@H](C)O)C(=O)N1)[C@@H](C)O)C(=O)N[C@@H](CC(C)C)C(=O)N1CCC[C@H]1C(=O)N1CCC[C@H]1C(=O)N[C@H](C(=O)N[C@@H](CC(N)=O)C(=O)N[C@H](C(=O)NCC(=O)N[C@@H](CO)C(=O)N[C@@H](CC(N)=O)C(=O)N[C@H](C(=O)N1CCC[C@H]1C(N)=O)[C@@H](C)O)C(C)C)[C@@H](C)O [Cagrilintide]
less cFos activated AP neurons in RAMP1/3 KO vs WT mice ([1]; 3 nmol/kg i.p., cohort 1, n = 5–6/group): 57%
Predicted (LS) mean diff., AP cFos after square root transformation ([1]; Cagrilintide (3 nmol/kg), WT vs. RAMP 1/3 KO): 2.537
Predicted (LS) mean diff., AP cFos after square root transformation ([1]; RAMP 1/3 KO, Vehicle vs. Cagrilintide (3 nmol/kg), Tukey): -3.878
Predicted (LS) mean diff., AP cFos after square root transformation ([1]; WT, Vehicle vs. Cagrilintide (3 nmol/kg), Tukey): -6.224
cFos activated neurons in the AP, cagrilintide compared to sCT ([1]; both 3 nmol/kg i.p., WT and KO mice, 90 min): −75%
acute effect on eating (WT 129S2 chow-fed mice): significantly reduced eating
Functional assay pEC50 [95% CI], cAMP, rCTR(a) (rCTR(a)): 9.54 [n.d] M
relative fat mass, RAMP1/3 KO compared to WT-treated counterparts [2]: +32%
relative lean mass, RAMP1/3 KO compared to WT-treated counterparts [2]: −22%
cFos activated neurons in the LPBN, cagrilintide compared to sCT [3]: −36%
effect on body weight ([4]; RAMP1/3 KO mice, 3 nmol/kg/d s.c., 21 days): no effect
acute anorectic effect on day 1 ([4]; RAMP1/3 KO mice, cagrilintide 3, sCT 150 nmol/kg s.c.): no effect
day 21 body weight loss vs WT Veh ([4]; WT mice, 3 nmol/kg/d s.c.): −66%
Body weight change after 3-week treatment ([4]; WT mice, cagrilintide 3, sCT 150 nmol/kg s.c. SID, mean ± SEM, n = 8/group): -3.4 ± 0.51 g
Food intake on Day 1 ([4]; WT mice, cagrilintide 3, sCT 150 nmol/kg s.c., mean ± SEM, n = 7–8/group): 1.2 ± 0.1 g
Functional assay pEC50 [95% CI], cAMP, rAMYR3 (rAMYR3): 9.46 [0.03] M
decrease of activated AP neurons in RAMP1/3 KO compared to WT-injected mice [5]: 40%
